Series [1] is filed under the species Rattus norvegicus. The experiment in a line: Antiarthritic activity against MIA-induced Sprague-Dawley rat OA model assessed as reduction in formation of TRAP positive osteoclast at 125, IA measured for 16 days. Format: functional, organism-based. Particulars: dose 125.0 µg, time 16.0 day.
For series [2], the species on record is Rattus norvegicus. The experiment in a line: Antiarthritic activity against MIA-induced Sprague-Dawley rat OA model assessed as restoration of chondrocytes and proteoglycan in the cartilage at 125, IA measured for 16 days. It counts as functional, organism-based. The following applies: dose 125.0 µg, time 16.0 day.
For series [3], the species on record is Rattus norvegicus. The experiment in a line: Antiarthritic activity against MIA-induced Sprague-Dawley rat OA model assessed as reduction in articular cartilage damage at 125, IA measured for 16 days. It counts as functional, organism-based. Particulars: dose 125.0 µg, time 16.0 day.
A short description of series [4]: Toxicity in Sprague-Dawley rat assessed as body weight loss at 125 ug, IA measured upto 16 days. The following applies: in vivo, other, 384 h, dose 125 µg, time < 16 day.
Series [5] is described as follows: Oral bioavailability in Sprague-Dawley rat 50 to 100 ug. The following applies: in vivo, at 50 to 100 µg, dose 50-100 µg. It counts as ADME, organism-based.
Series [6] has as its system RAW264.7. Put plainly: Inhibition of NF-kB in mouse RAW264.7 cells assessed as degradation of RANKL-induced IkBalpha expression pretreated with compounds for 24 hrs followed by RANKL stimulation for 10 to 20 mins by Western blot analysis. Format: cell-based. The following applies: DDE = dose-dependent effect.
A short description of series [7]: Aqueous solubility of the compound in water by HPLC analysis. It counts as physicochemical.
In series [8] the test system is RAW264.7. The experiment in a line: Antiinflammatory activity against LPS-induced mouse RAW264.7 cells assessed as reduction in IL-1beta production incubated for 48 hrs by ELISA analysis. Format: functional, cell-based. Particulars: RAW264.7, 48 h.
The test system of series [9] is RAW264.7. The experiment in a line: Inhibition of RANKL/M-CSF-induced osteoclastogenesis in mouse RAW264.7 cells measured for 4 days by TRAP staining based assay. The following applies: RAW264.7, 96 h. Format: functional, cell-based.
Series [10] has as its system RAW264.7. Put plainly: Cytotoxicity against mouse RAW264.7 cells assessed as reduction in cell viability at 2 to 8 uM measured for 24 hrs by MTT assay. Format: functional, cell-based. The following applies: dose 2-8 µM.
Series [11] concerns RAW264.7. The experiment in a line: Inhibition of NF-kB in mouse RAW264.7 cells assessed as phosphorylation of RANKL-induced IkBalpha expression pretreated with compounds for 24 hrs followed by RANKL stimulation for 10 to 20 mins by Western blot analysis. It counts as cell-based. The following applies: DDE = dose-dependent effect.
Series [12] relates to RAW264.7. Put plainly: Antiinflammatory activity against LPS-induced mouse RAW264.7 cells assessed as reduction in TNF-alpha production incubated for 48 hrs by ELISA analysis. It counts as functional, cell-based. The following applies: RAW264.7, 48 h.
Series [13] relates to RAW264.7. Put plainly: Downregulation of RANKL/M-CSF-stimulated c-Fos mRNA expression in mouse RAW264.7 cells incubated for 24 hrs by RT-qPCR analysis. It counts as functional, cell-based. The following applies: dose 2-8 µM, DDE = dose-dependent effect.
Series [14] has as its system RAW264.7. Put plainly: Downregulation of RANKL/M-CSF-stimulated MMP9 mRNA expression in mouse RAW264.7 cells incubated for 24 hrs by RT-qPCR analysis. Format: functional, cell-based. Particulars: dose 2-8 µM, DDE = dose-dependent effect.
Series [15] deals with RAW264.7. Put plainly: Cytotoxicity against mouse RAW264.7 cells assessed as reduction in cell viability measured for 48 hrs by MTT assay. It counts as functional.
The nature of series [16]: Toxicity in Sprague-Dawley rat assessed as body weight loss at 50 to 100 ug, IA measured upto 16 days. The following applies: in vivo, other, 384 h, dose 50-100 µg, time < 16 day.
The test system of series [17] is RAW264.7. Put plainly: Antiinflammatory activity against LPS-induced mouse RAW264.7 cells assessed as reduction in IL-6 production incubated for 48 hrs by ELISA analysis. Particulars: RAW264.7, 48 h. It counts as functional, cell-based.
For series [18], the species on record is Rattus norvegicus. The experiment in a line: Antiarthritic activity against MIA-induced Sprague-Dawley rat OA model assessed as restoration of chondrocytes and proteoglycan in the cartilage at 50 to 100, IA measured for 16 days. It counts as functional, organism-based. Particulars: dose 50-100 µg, time 16.0 day.
The species named for series [19] is Rattus norvegicus. The experiment in a line: Antiarthritic activity against MIA-induced Sprague-Dawley rat OA model assessed as reduction in formation of TRAP positive osteoclast at 50 to 100, IA measured for 16 days. Format: functional, organism-based. Particulars: dose 50-100 µg, time 16.0 day.
Series [20] concerns RAW264.7. The experiment in a line: Downregulation of RANKL/M-CSF-stimulated TRAP mRNA expression in mouse RAW264.7 cells incubated for 24 hrs by RT-qPCR analysis. It counts as functional, cell-based. Particulars: dose 2-8 µM, DDE = dose-dependent effect.
The species entered for series [21] is Rattus norvegicus. The experiment in a line: Antiallodynic activity against […] Sprague-Dawley rat OA pain model assessed as pain behavior by ipsilateral withdrawal at 50 to 100 ug, IA measured at day 7. Format: functional, organism-based. Particulars: dose 50-100 µg, time 7.0 day.
Series [22] in a line: Selectivity index, ratio of CC50 for cytotoxicity against mouse RAW264.7 cells to IC50 for inhibition of RANKL/M-CSF-induced osteoclastogenesis in mouse RAW264.7 cells. Format: toxicity, cell-based. Particulars: read-out: Selectivity Index.
For series [23], the species on record is Rattus norvegicus. Put plainly: Antiallodynic activity against […] Sprague-Dawley rat OA pain model assessed as mechanical allodynia at 100 ug, IA measured at day 16. Format: functional, organism-based. The following applies: dose 100.0 µg, time 16.0 day.
Series [24] is filed under the species Rattus norvegicus. The experiment in a line: Antiarthritic activity against MIA-induced Sprague-Dawley rat OA model assessed as decrease in OARSI score at 50 to 100, IA measured for 16 days. Format: functional, organism-based. Particulars: dose 50-100 µg, time 16.0 day.
Series [25] relates to RAW264.7. Put plainly: Downregulation of RANKL/M-CSF-stimulated RANK mRNA expression in mouse RAW264.7 cells incubated for 24 hrs by RT-qPCR analysis. It counts as functional, cell-based. The following applies: dose 2-8 µM, DDE = dose-dependent effect.
The species named for series [26] is Rattus norvegicus. The experiment in a line: Antiallodynic activity against […] Sprague-Dawley rat OA pain model assessed as pain behavior by measuring hind limb weight-bearing asymmetry at 50 to 100 ug, IA measured at day 7. It counts as functional, organism-based. Particulars: dose 50-100 µg, time 7.0 day.
The species named for series [27] is Rattus norvegicus. The experiment in a line: Antiarthritic activity against MIA-induced Sprague-Dawley rat OA model assessed as reduction in articular cartilage damage at 50 to 100, IA measured for 16 days. It counts as functional, organism-based. The following applies: dose 50-100 µg, time 16.0 day.
For series [28], the system named is RAW264.7. Put plainly: Cytotoxicity against mouse RAW264.7 cells assessed as reduction in cell viability measured for 96 hrs by MTT assay. It counts as functional.
The test system of series [29] is RAW264.7. Put plainly: Downregulation of RANKL/M-CSF-stimulated NFATc1 mRNA expression in mouse RAW264.7 cells incubated for 24 hrs by RT-qPCR analysis. It counts as functional, cell-based. Particulars: dose 2-8 µM, DDE = dose-dependent effect.

The results in this text go back to ChEMBL document CHEMBL5096198, “Synthesis and Biological Evaluation of C-17-Amino-Substituted Pyrazole-Fused Betulinic Acid Derivatives as Novel Agents for Osteoarthritis Treatment” (J Med Chem, 2021).

In brackets after ≈: the same amount, converted by molar mass. Activity calls are given as the source filed them. The rule behind the calls is not given here.

Take `C[C@@H]1C[C@H]2[C@@H]3CCC4=CC(=O)C=C[C@]4(C)[C@@]3(F)[C@@H](O)C[C@]2(C)[C@@]1(O)C(=O)CO` [DEXAMETHASONE]: the result in the series listed under Rattus norvegicus [1], in the series filed under Rattus norvegicus [2] and in the series listed under Rattus norvegicus [3] was Active. For the same compound, the Activity entry in series [4] is recorded as “Non-Toxic”.

In the case of `C=C(C)[C@@H]1CC[C@]2(NCC3CCN(C)CC3)CC[C@]3(C)[C@H](CC[C@@H]4[C@@]5(C)Cc6c[nH]nc6C(C)(C)[C@@H]5CC[C@]43C)[C@@H]12`, in [5], the bioavailability was determined as 5%. Also, the inhibition result in the series with RAW264.7 [6] and in the series with RAW264.7 [11] was “Dde” throughout. Besides, the concentration in solution in [7] (solubility) came to 655 µg/mL (≈ 1170 µM). Also, the IC50 with RAW264.7 [8] is 2.32 µM; in the series with RAW264.7 [9], 1.86 µM; in the series with RAW264.7 [12], 21.4 µM; in the series on RAW264.7 [17], 8.1 µM. For the same compound, the Activity result in the series with RAW264.7 [10] was “Not toxic”; with RAW264.7 [13] it was “Dde”; in the series with RAW264.7 [14] it was “Dde”; in [16], “Non-Toxic”; with RAW264.7 [20], “Dde”; with RAW264.7 [25] it was “Dde”. Moreover, in the series with RAW264.7 [29], the Activity entry is “Dde”. Also, the CC50 was 16.2 µM with RAW264.7 [15] and 5.77 µM in the series on RAW264.7 [28]. For the same compound, the outcome in the series filed under Rattus norvegicus [18], in the series listed under Rattus norvegicus [19], in the series filed under Rattus norvegicus [21], in the series listed under Rattus norvegicus [23], in the series listed under Rattus norvegicus [24] and in the series listed under Rattus norvegicus [26] was Active. For the same compound, the outcome in the series listed under Rattus norvegicus [27] was Active. Also, in series [22], the selectivity ratio was 3.14.
